Test results reported in patent US9174998B2, “(6S,9aS)-N-benzyl-6-[(4-hydroxyphenyl)methyl]-4,7-dioxo-8-({6-[3-(piperazin-1-yl)azetidin-1-yl]pyridin-2-yl}methyl)-2-(prop-2-en-1-yl)-octahydro-1H-pyrazino[2,1-c][1,2,4]triazine-1-carboxamide compound” (Eisai R&D Management Co., Ltd., priority 2013, dated 2015).
In brackets after ≈: the same amount, converted by molar mass. Where two headings read alike, the source gives them in different places.

How the values were obtained:
[1] = Evaluation of metabolic stability; format: in vitro ADME, human; details: 0.2 mg/mL HLM, 0.1 μM test substance, 15 minutes at 37° C., with vs without NADPH production
Method in brief: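 Pooled human liver microsomes (0.2 mg/mL) in 0.1 M potassium phosphate pH 7.4 with EDTA, MgCl2 and an NADPH-generating system (NADP+, glucose-6-phosphate, G6PDH). Residual ratio by LC-MS/MS, comparing with versus without NADPH generation.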

[2] = PAMPA test (parallel artificial membrane permeability assay); format: in vitro ADME; details: phosphate buffer pH 6.8, about 200 μM, about 5 hours, room temperature, read-out: Test Example 4 membrane permeation coefficient Pe
Method in brief: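 Compounds at about 200 μM in pH 6.8 phosphate buffer with about 1% DMSO on the donor side. Transport across a lipid-precoated PVDF membrane with shaking at 350 rpm, room temperature, about 5 h. Donor and acceptor concentrations measured by HPLC-UV; Pe (cm/s) calculated from these.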

Wnt signal = test: Detection of Wnt signal (TOPglow luciferase reporter, LiCl-stimulated); format: cell-based; details: Homo sapiens; HEK293 clone carrying pNeo-TOP reporter; LiCl stimulation; luciferase luminescence; read-out: Test Example 1 IC50 (concentration required for inhibiting the Wnt signal activity by 50%)
Method in brief: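 Stable HEK293 clone carrying a TOPglow TCF/Wnt-responsive luciferase reporter, stimulated with 80 mM LiCl in the diluted sample medium alongside compound; luminescence read with Bright-Glo 6 h after addition. IC50 derived from activity scaled between LiCl-only wells (100%) and wells lacking both LiCl and sample (0%).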

[3] = Evaluation of solubility (DMSO stock into PBS, HPLC-UV); format: physicochemical; details: Dulbecco's phosphate-buffered saline pH 7, room temperature, about 15 minutes shaking, values greater than 200 μM regarded as 200 μM, read-out: Test Example 3 solubility
Method in brief: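 Kinetic solubility: 20 mM DMSO stock spiked into Dulbecco's PBS pH 7, shaken about 15 min at room temperature, then suction-filtered; filtrate quantified by HPLC-UV against a 200 μM DMSO standard. Values above 200 μM are capped at 200 μM.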

[4] = aqueous buffer, kinetic from dmso stock

| SMILES | Test Example 2 residual ratio of the test substance [1] | Papp [2] | IC50 (Wnt signal) | solubility [3, 4] | solubility [3] |
| --- | --- | --- | --- | --- | --- |
| C=CCN1CC(=O)N2[C@@H](Cc3ccc(O)cc3)C(=O)N(Cc3ccc(F)c(N4CC(N5CCC(N(C)C)CC5)C4)n3)C[C@@H]2N1C(=O)NCc1ccccc1 [Reference Example 1, (6S,9aS)-N-Benzyl-8-((6-(3-(4-(dimethylamino)piperidin-1-yl)azetidin-1-yl)-5-fluoropyridin-2-yl)methyl)-6-((4-hydroxyphenyl)methyl)-4,7-dioxo-2-(prop-2-en-1-yl)-octahydro-1H-pyrazino[2,1-c][1,2,4]triazine-1-carboxamide] | 54% | 0.62 ×10⁻⁶ cm/s | 240 nM | 193 µM (≈ 143 µg/mL) |  |
| C=CCN1CC(=O)N2[C@@H](Cc3ccc(O)cc3F)C(=O)N(Cc3ccc(F)c(N4CC(N5C[C@@H]6C[C@H]5CN6C(C)C)C4)n3)C[C@@H]2N1C(=O)NCc1ccccc1 [Reference Example 4, (6S,9aS)-N-Benzyl-6-((2-fluoro-4-hydroxyphenyl)methyl)-8-((5-fluoro-6-(3-((1S,4S)-5-(propan-2-yl)-2,5-diazabicyclo[2.2.1]heptan-2-yl)azetidin-1-yl)pyridin-2-yl)methyl)-4,7-dioxo-2-(prop-2-en-1-yl)-octahydro-1H-pyrazino[2,1-c][1,2,4]triazine-1-carboxamide] | 34% | 0.68 ×10⁻⁶ cm/s | 150 nM | 198 µM (≈ 152 µg/mL) |  |
| C=CCN1CC(=O)N2[C@@H](Cc3c(F)cc(O)cc3F)C(=O)N(Cc3cccc(N4CC(N5CCN(CC)CC5)C4)n3)C[C@@H]2N1C(=O)NCc1ccccc1 [Example 13, (6S,9aS)-N-Benzyl-6-((2,6-difluoro-4-hydroxyphenyl)methyl)-8-((6-(3-(4-ethylpiperazin-1-yl)azetidin-1-yl)pyridin-2-yl)methyl)-4,7-dioxo-2-(prop-2-en-1-yl)-octahydro-1H-pyrazino[2,1-c][1,2,4]triazine-1-carboxamide] | 56% | 0.52 ×10⁻⁶ cm/s | 140 nM |  | 200 µM (≈ 149 µg/mL) |
| C=CCN1CC(=O)N2[C@@H](Cc3ccc(O)cc3)C(=O)N(Cc3cccc(N4CC(N5CCN(C(C)C)CC5)C4)n3)C[C@@H]2N1C(=O)NCc1ccccc1 [Example 9, (6S,9aS)-N-Benzyl-6-((4-hydroxyphenyl)methyl)-4,7-dioxo-2-(prop-2-en-1-yl)-8-((6-(3-(4-(propan-2-yl)piperazin-1-yl)azetidin-1-yl)pyridin-2-yl)methyl)-octahydro-1H-pyrazino[2,1-c][1,2,4]triazine-1-carboxamide] | 34% | 1.38 ×10⁻⁶ cm/s | 150 nM | 194 µM (≈ 140 µg/mL) |  |

Now those with a lower IC50 (Wnt signal), led by results:

| Test Example 2 residual ratio of the test substance [1] | Papp [2] | IC50 (Wnt signal) | solubility [3, 4] | solubility [3] | SMILES |
| --- | --- | --- | --- | --- | --- |
| 23% | 2.17 ×10⁻⁶ cm/s | 61 nM | 197 µM (≈ 146 µg/mL) |  | C=CCN1CC(=O)N2[C@@H](Cc3ccc(O)cc3F)C(=O)N(Cc3cccc(N4CC(N5CCN(CC)[C@@H](C)C5)C4)n3)C[C@@H]2N1C(=O)NCc1ccccc1 [Example 20, (6S,9aS)-N-Benzyl-8-((6-(3-((3S)-4-ethyl-3-methylpiperazin-1-yl)azetidin-1-yl)pyridin-2-yl)methyl)-6-((2-fluoro-4-hydroxyphenyl)methyl)-4,7-dioxo-2-(prop-2-en-1-yl)-octahydro-1H-pyrazino[2,1-c][1,2,4]triazine-1-carboxamide] |
| 26% | 2.55 ×10⁻⁶ cm/s | 39 nM | 192 µM (≈ 142 µg/mL) |  | C=CCN1CC(=O)N2[C@@H](Cc3ccc(O)cc3F)C(=O)N(Cc3cccc(N4CC(N5CCN(C(C)C)CC5)C4)n3)C[C@@H]2N1C(=O)NCc1ccccc1 [Example 11, (6S,9aS)-N-Benzyl-6-((2-fluoro-4-hydroxyphenyl)methyl)-4,7-dioxo-2-(prop-2-en-1-yl)-8-((6-(3-(4-(propan-2-yl)piperazin-1-yl)azetidin-1-yl)pyridin-2-yl)methyl)-octahydro-1H-pyrazino[2,1-c][1,2,4]triazine-1-carboxamide] |
